Measurements published in patent US20250000864A1, “GONADOTROPIN-RELEASING HORMONE ANTAGONIST, AND PREPARATION METHOD THEREFOR AND USE THEREOF” (SHANDONG LUYE PHARMACEUTICAL CO., LTD., priority 2021, published 2025).
Read-outs that look alike come from different tables or passages of the source.

Key:
[1] = Caco-2 two-way permeability and efflux; assay type: in vitro ADME; conditions: human; for Papp A→B at 120 min / Papp B→A at 120 min: Caco-2, 120 min incubation
Protocol: Instrument: water purification equipment, ELGA LabWate; biosafety cabinet, NUAIRE; thermostatic CO2 incubator, Thermo; microplate reader, PerkinElmer; LC-MS/MS, AB SCIEX.
Method: A Caco-2 monolayer cell model was used to determine the two-way permeability of the test substances and evaluate whether the test substances were transported by the efflux of a transporter. In the experiment, Caco-2 cells were seeded into a 96-well cell culture plate and cultured for 28 consecutive days for transport assay. The test substances were each administered on two sides. After being incubated for 120 min, the samples at the apical end A, at the basal end B, and with cell lysis were collected and quantitatively determined for the content of the test substances by using a liquid chromatography-tandem mass spectrometry (LC/MS/MS) method. The apparent permeability coefficient (Papp) in the direction from the apical end to the basal end (A-B) and in the direction from the basal end to the apical end (B-A) and the efflux ratio were calculated from the concentrations of the test substances.

[2] = Metabolic stability in human liver microsomes; assay type: in vitro ADME; conditions: for Residual content at 60 min: NADPH, 37° C.; for microsomal CLint: read-out: CLint(mic)
Protocol: (§1) Liver Microsome: Rat Liver Microsome and Human Liver Microsome Reagent: NADPH, Roche Diagnostics Gmbh; ACN, Merck Chemical; Tolbutamide, Sigma. Instrument: water purification equipment, Millipore; electronic balance, METTLER TOLEDO; high-speed benchtop centrifuge, Thermo; water bath thermostatic oscillator, Shanghai Yiheng Technical Co., Ltd.; vortex oscillator, Thermo; LC-MS/MS, AB SCIEX. Method: the metabolic stability of test substances was evaluated by using SD rat and human liver microsomes. The test substances were incubated with liver microsomes from different species by using NADPH under a water bath at 37° C. A cold acetonitrile solution containing a Tolbutamide internal standard substance was added at a specified time point to terminate the reaction. The samples were pre-treated and then subjected to semi-quantitative analysis by LC-MS/MS. The retention times of the analytes and Tolbutamide internal standard, the acquisition of chromatograms, and the integration of chromatograms were processed using software Analyst (A Sciex, Framingham, Massachusetts, USA). The in vitro elimination rate constant Ke of the samples was obtained by converting the ratio of the peak area of the samples to the peak area of the internal standard into the residual percentage, and the in vitro clearance rate and the half-life of the test samples were calculated.

[3] = Metabolic stability in rat liver microsomes; assay type: in vitro ADME, SD rat; conditions: for Residual content at 60 min / CLint scaled / half-life / microsomal CLint / CLint(liver): Rat liver microsomes; for Residual content at 60 min: NADPH, 37° C.; for CLint scaled / half-life / microsomal CLint: Sprague-Dawley (SD); for microsomal CLint: read-out: CLint(mic)
Protocol: as §1

human GnRHR = human GnRHR (Homo sapiens (Human), UniProt P30968); assay: In vitro antagonistic activity screening (FLIPR calcium fluorescence, Leuprolide acetate stimulation); assay type: cell-based; conditions: HEK293 cells stably expressing human GnRHR
Chain of human GnRHR (P30968 whole entry): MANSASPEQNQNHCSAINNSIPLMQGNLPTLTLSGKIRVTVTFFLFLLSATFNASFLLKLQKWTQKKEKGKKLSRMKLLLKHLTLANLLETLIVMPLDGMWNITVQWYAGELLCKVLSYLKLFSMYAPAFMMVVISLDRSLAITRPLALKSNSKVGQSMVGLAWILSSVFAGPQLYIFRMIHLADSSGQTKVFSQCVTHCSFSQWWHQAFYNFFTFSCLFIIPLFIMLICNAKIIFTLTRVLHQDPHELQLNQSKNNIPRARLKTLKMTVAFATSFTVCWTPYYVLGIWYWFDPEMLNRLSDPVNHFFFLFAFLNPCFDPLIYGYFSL
Protocol: Cell: HEK293 cells stably expressing human GnRHR (WuXi AppTec (Shanghai) Co., Ltd.) Equipment: 384-well plate, Greiner; Vi-cell XR Cell Viability Analyzer, Beckman Coulter; incubator, Thermo.
Method: HEK293 cells stably expressing human GnRHR were seeded into a 384-well plate at a density of 20,000/well. Fluo-4 Direct™ No-wash Loading Buffer (Invitrogen) was added to each well the next day, and then the plate was put back into an incubator, incubated at 37° C. for 50 min, and then incubated at room temperature for 10 min. Test compounds were formulated in DMSO. […] Fluorescence values were determined using a FLIPR Tetra high throughput real-time fluorescence detection and assay system. Then 10 μL of Leuprolide acetate was added, and fluorescence values were determined. IC50 and IC90 of the compounds were calculated using Prism.

[4] = molecular target: human hERG potassium channel (Homo sapiens (Human), UniProt Q12809); assay: hERG test (QPatch automated patch clamp, CHO cells); assay type: cell-based
Chain of human hERG potassium channel (Q12809 whole entry): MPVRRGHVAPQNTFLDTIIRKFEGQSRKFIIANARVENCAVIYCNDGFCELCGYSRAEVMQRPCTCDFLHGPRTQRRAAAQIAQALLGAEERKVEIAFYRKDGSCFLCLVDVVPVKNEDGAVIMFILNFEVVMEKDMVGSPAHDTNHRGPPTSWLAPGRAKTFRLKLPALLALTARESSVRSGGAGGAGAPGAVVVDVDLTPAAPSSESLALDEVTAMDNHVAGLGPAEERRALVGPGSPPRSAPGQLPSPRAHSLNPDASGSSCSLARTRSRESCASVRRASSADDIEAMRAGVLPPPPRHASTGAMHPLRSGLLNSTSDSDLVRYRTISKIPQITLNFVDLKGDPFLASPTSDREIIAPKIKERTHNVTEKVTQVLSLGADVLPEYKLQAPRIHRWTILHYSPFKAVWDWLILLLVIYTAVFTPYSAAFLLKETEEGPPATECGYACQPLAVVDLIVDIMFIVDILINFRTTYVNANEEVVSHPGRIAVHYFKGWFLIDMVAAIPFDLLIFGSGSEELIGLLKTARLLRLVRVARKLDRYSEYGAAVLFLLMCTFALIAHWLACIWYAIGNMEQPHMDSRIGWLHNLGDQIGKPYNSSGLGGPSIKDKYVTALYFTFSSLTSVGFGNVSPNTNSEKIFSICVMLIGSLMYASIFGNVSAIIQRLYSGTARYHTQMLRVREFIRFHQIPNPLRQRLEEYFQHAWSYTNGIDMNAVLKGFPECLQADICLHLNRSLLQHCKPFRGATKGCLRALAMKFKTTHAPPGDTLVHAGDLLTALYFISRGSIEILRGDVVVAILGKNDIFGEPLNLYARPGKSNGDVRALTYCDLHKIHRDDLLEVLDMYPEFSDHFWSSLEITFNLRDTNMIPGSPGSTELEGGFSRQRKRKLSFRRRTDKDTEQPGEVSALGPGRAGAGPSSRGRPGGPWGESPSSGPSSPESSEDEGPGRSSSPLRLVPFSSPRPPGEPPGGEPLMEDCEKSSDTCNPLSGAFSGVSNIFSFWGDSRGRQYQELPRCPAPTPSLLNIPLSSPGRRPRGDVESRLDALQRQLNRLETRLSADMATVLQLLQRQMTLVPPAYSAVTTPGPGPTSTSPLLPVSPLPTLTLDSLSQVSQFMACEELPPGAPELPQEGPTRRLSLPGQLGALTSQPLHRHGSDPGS
Protocol: Cell: CHO cells stably expressing a human hERG potassium channel (WuXi AppTec (Shanghai) Co., Ltd.) Reagent: physiological solution (pH=7.4): 140 mM NaCl, 4 mM KCl, 2 mM CaCl2), 1 mM MgCl2, 5 mM Glucose, 10 mM HEPES, Osmolarity: about 298 mOsm; external solution (pH=7.4): 80 mM NaCl, 4 mM KCl, 2 mM CaCl2), 1 mM MgCl2, 5 mM Glucose, 60 mM NMDG, 10 mM HEPES, Osmolarity: about 289 mOsm; internal solution (pH=7.4): 10 mM NaCl, 10 mM KCl, 110 mM KF, 10 mM HEPES, EGTA: […], Osmolarity: about 280 mOsm.
Equipment: QPatch high-throughput automated patch clamp system, Sophion.
Method: CHO cells stably expressing a human hERG potassium channel were digested with TrypLE and resuspended in a physiological solution for later use. The single-cell high-impedance sealing and whole-cell mode formation processes were automatically completed by Qpatch. The clamping voltage for the cells was −80 mV. Then a voltage of −50 mV was applied for 80 ms to subtract (current) leakage, and a voltage of +20 mV was applied for 4800 ms to open the hERG channel. The voltage was then reduced to −50 mV and maintained for 5000 ms. This process was used for data collection and analysis. Finally, the voltage was returned to the clamping voltage (−80 mV, 1000 ms). This process was repeated every 20,000 ms. 40 μL of solvent control (external solution+DMSO) was added first, and the test was performed for […] to collect baseline data. Then, 40 μL of each of the test compounds was added at various concentrations, and the test was performed for no less than […]. The compounds were each dissolved in DMSO, with test concentrations being 0.30 μM, 1.00 μM, 3.00 μM, 10.00 μM, and 30.00 μM. The IC50 data for the hERG test were obtained by analyzing using DataControl, Excel2013, and Prism.

[5] = Pharmacokinetics in SD rats (i.v. and i.g.); assay type: in vivo; conditions: for bioavailability: read-out: F (absolute bioavailability)
Protocol: Instrument: water purification equipment, Millipore; electronic balance, METTLER TOLEDO; high-speed benchtop centrifuge, Thermo; water bath thermostatic oscillator, Shanghai Yiheng Technical Co., Ltd.; vortex oscillator, Thermo; LC-MS/MS, AB SCIEX.
Method: all compounds were formulated in DMSO and 20% solutol. In the pharmacokinetic experiment, the administration dose for the intravenous group (i.v) was 1 mg/kg, and the administration dose for the intragastric group (i.g) was 12 mg/kg, each group containing 3 rats. Blood was collected from the orbit of the rats before (0 h) the administration and at set time points after administration. In the tissue distribution experiment, the rats were subjected to intragastric administration at a dose of 12 mg/kg. […] The […] in a heparinized EP tube and centrifuged at 13,500 rpm for 10 min to isolate the plasma. The pituitary was homogenized with water in a certain proportion. The plasma and pituitary homogenates were pre-treated and then analyzed by LC-MS/MS to determine the concentration of the test substances in the plasma and the pituitary. The plasma drug concentration data were processed in a non-compartmental model using WinNonlin™ Version 6.3 (Pharsight, Mountain View, CA) pharmacokinetic software.

[6] = male, rat, plasma, intravenous, i.v 1 mg/kg
[7] = male, rat, plasma, oral, i.g 12 mg/kg
[8] = male, Sprague-Dawley (SD), rat, plasma, iv, i.v 1 mg/kg
[9] = male, Sprague-Dawley (SD), rat, plasma, po, i.g 12 mg/kg
[10] = male, Sprague-Dawley (SD), rat, plasma, po, i.g 12 mg/kg vs i.v 1 mg/kg

SMILES	Papp A→B at 120 min [1] [×10⁻⁶ cm/s]	Papp B→A at 120 min [1] [×10⁻⁶ cm/s]	CLint scaled [2] [mL/min/kg]	half-life [2] [h]	Residual content at 60 min [2] [%]	microsomal CLint [2] [µL/min/mg]	Residual content at 60 min [3] [%]	CLint scaled [3] [mL/min/kg]	half-life [3] [h]	microsomal CLint [3] [µL/min/mg]	other results
CONC(=O)Nc1ccc(-c2sc3c(c2CN(C)C)c(=O)n(-c2ccc(OC)nn2)c(=O)n3Cc2c(F)cccc2C(F)(F)F)cc1 [Compound 5]	0.011	4.58	< 6.75	> 3.1	89.0	< 7.5	98.7	< 13.5	> 3.1	< 7.5	
CNc1ccc(-n2c(=O)c3c(CN(C)C)c(-c4ccc(NC(=O)NOC)cc4)sc3n(Cc3c(F)cccc3F)c2=O)nn1 [Compound 6]	0.0504	0.504	< 6.75	> 3.1	95.9	< 7.5	57.1	34.9	1.19	19.4	
COc1ccc(-n2c(=O)c3c(CN(C)C)c(-c4ccc(NC(=O)NOCC(F)F)cc4)sc3n(Cc3c(F)cccc3F)c2=O)nn1 [Compound 7]	0.0101	15.6		2.82	75.5	8.2	47.0		0.917	25.2	CLint(liver) [2]: 7.38 mL/min/kg; CLint(liver) [3]: 45.4 mL/min/kg
CONC(=O)Nc1ccc(-c2oc3c(c2CN(C)C)c(=O)n(-c2ccc(OC)nn2)c(=O)n3Cc2c(F)cccc2F)cc1 [Compound 4]	0.0933	29.4	< 6.75	> 3.1	104	< 7.5	89.9	< 13.5	> 3.1	< 7.5	efflux ratio at 120 min ([1]; Caco-2, read-out: Efflux ratio): 316; IC50 (human GnRHR; read-out: Functional IC50): 12 nM; IC90 (human GnRHR; read-out: Functional IC90): 92.3 nM; IC50 ([4]; CHO cells stably expressing human hERG potassium channel): 4440 nM; Inhibitory activity on the human hERG potassium channel compared with Relugolix ([4]; in words, vs Relugolix): equal to or less than that of Relugolix; Clearance in the SD rat liver microsome (in words) ([3]; SD rat liver microsome): low clearance
CONC(=O)Nc1ccc(-c2sc3c(c2CN(C)CCOC(F)(F)F)c(=O)n(-c2ccc(OC)nn2)c(=O)n3Cc2c(F)cccc2F)cc1 [Compound 1]											T1/2 ([5]; i.g 12 mg/kg): 4.86 ± 3.05 h; Tmax ([5]; i.g 12 mg/kg): 1.13 ± 0.63 h; F (absolute bioavailability) ([5]; i.g 12 mg/kg vs i.v 1 mg/kg): 44.7%; T1/2 ([5]; i.v 1 mg/kg): 2.79 ± 0.87 h; AUC(0-t) [5, 6]: 992 ± 226 ng·h/mL; C0 [5, 6]: 2830 ± 454 ng/mL; MRT last [5, 6]: 0.539 ± 0.041 h; AUC(0-t) [5, 7]: 5320 ± 1210 ng·h/mL; Cmax [5, 7]: 664 ± 123 ng/mL; MRT last [5, 7]: 6.02 ± 0.93 h
CONC(=O)Nc1ccc(-c2sc3c(c2CN(C)C)c(=O)n(-c2cccc(OC(F)F)c2F)c(=O)n3Cc2c(F)cccc2F)cc1 [Compound 3]	0.126	18	17.5	1.19	55.5	19.4	34.5	62.6	0.663	34.8	AUC(0-t) [5, 8]: 271 ± 49 ng·h/mL; C0 [5, 8]: 198 ± 4 ng/mL; MRT last [5, 8]: 3.83 ± 0.63 h; half-life [5, 8]: 4.34 ± 1 h; AUC(0-t) [5, 9]: 596 ± 231 ng·h/mL; Cmax [5, 9]: 82.7 ± 10.1 ng/mL; MRT last [5, 9]: 7.3 ± 1.13 h; half-life [5, 9]: 4.11 h; bioavailability [5, 10]: 18.3%; Tmax ([5]; male, Sprague-Dawley (SD), rat, plasma, po, i.g 12 mg/kg, read-out: Tmax): 6 ± 2.83 h
CONC(=O)Nc1ccc(-c2sc3c(c2CN(C)C)c(=O)n(-c2ccc(OC)nn2)c(=O)n3Cc2c(F)cccc2F)cc1 [Relugolix, reference compound]	0.00716	13.8		3.98	86.4	5.8	58.0		1.41	16.4	T1/2 ([5]; i.g 12 mg/kg): 3.88 ± 0.57 h; bioavailability [5, 10]: 5.74%; CLint(liver) [2]: 5.22 mL/min/kg; CLint(liver) [3]: 29.5 mL/min/kg
